Values joined by “and” are separate entries in the source; they are usually repeats but may differ in a detail not shown here. Identical values can stand only once.
Key:
jack bean urease (JBU) = target: T1, jack bean urease (JBU) (Canavalia ensiformis, UniProt P07374); assay: Urease inhibition test (modified Berthelot method); assay type: biochemical; settings: replicates
T1 construct: Urease from jack bean (Canavalia ensiformis, JBU); purchased Sigma-Aldrich (St Louis, MO, USA) type III (catalogue number not given)
T1 sequence (P07374 whole entry, looked up): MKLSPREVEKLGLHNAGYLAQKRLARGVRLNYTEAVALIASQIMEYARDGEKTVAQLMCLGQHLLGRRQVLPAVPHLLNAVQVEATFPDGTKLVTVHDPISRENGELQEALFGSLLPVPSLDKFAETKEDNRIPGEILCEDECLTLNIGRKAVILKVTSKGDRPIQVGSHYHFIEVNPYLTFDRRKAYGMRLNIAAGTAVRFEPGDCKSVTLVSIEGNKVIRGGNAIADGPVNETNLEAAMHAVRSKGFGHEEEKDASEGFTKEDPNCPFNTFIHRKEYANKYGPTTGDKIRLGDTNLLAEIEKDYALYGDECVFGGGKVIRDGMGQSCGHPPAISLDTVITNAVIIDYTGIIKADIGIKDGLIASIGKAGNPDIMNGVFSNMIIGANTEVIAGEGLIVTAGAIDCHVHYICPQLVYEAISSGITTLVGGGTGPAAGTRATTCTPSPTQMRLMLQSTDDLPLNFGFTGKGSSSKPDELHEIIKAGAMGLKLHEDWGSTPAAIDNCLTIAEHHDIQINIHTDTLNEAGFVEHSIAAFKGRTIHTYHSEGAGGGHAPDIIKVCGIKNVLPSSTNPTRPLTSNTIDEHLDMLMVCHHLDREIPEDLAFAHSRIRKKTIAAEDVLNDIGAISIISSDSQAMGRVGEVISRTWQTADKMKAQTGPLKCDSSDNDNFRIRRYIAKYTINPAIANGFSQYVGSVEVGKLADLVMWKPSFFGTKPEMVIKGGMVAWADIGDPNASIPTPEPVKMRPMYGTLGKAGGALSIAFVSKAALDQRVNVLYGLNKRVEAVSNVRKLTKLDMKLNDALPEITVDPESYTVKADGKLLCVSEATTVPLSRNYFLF
Protocol: (§1) HPU was prepared as previously described. The standard urease assay mixture included 150 mM urea in 20 mM HEPES buffer (pH 7.5). After addition of small aliquots of enzyme-containing solution of urease, the assay ran for 20 min. The enzymatic activity was evaluated spectrophotometrically by detecting the ammonia concentration at 595 nm according to the modified Berthelot (phenol-hypochlorite) method. Urease activity was estimated with JBU as a standard, the specific activity of HPU was determined to be 17.0 U/mg. One unit of urease activity was defined as 1 μmol of ammonia released per min at 25°C. The amount of protein was determined by commercial Bradford Protein Assay Kit with BSA as a standard. The amount of ammonia released was decided from a standard curve. The activity of uninhibited urease was defined as the control activity of 100%.
(§2) Reaction mixtures comprising 0.25 mg/mL HPU or JBU and different concentrations of Pal or AHA at the volume ratio of 1:1, were incubated at 37°C in 20 mM HEPES buffer (pH 7.5) in the absence of urea. The reactions were initiated by mixing the urease and the inhibitor. The preincubation mixture was withdrawn at 20 min and immediately transferred into the standard assay mixtures for urease residual activity determination. Inhibition rate (%) was calculated following the formula: I % = (1-activity with inhibitors/activity without inhibitors) × 100%. The IC50 was expressed as the concentration of inhibitor that decreased urease activity by 50% and calculated by plotting the percent of inhibition. The experiments were triply performed.

H. pylori urease (HPU) = target: T2, H. pylori urease (HPU) (Helicobacter pylori, UniProt P69996); assay: Urease inhibition test (modified Berthelot method); assay type: biochemical
T2 construct: HPU was prepared as previously described; made in house
T2 sequence (P14916 whole entry): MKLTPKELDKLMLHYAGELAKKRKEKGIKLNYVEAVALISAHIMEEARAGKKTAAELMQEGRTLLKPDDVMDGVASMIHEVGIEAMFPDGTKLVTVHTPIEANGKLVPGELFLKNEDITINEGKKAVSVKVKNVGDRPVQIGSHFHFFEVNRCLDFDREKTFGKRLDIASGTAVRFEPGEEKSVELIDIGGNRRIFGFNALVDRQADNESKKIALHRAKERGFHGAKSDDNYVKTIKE
T2 sequence (P69996 whole entry): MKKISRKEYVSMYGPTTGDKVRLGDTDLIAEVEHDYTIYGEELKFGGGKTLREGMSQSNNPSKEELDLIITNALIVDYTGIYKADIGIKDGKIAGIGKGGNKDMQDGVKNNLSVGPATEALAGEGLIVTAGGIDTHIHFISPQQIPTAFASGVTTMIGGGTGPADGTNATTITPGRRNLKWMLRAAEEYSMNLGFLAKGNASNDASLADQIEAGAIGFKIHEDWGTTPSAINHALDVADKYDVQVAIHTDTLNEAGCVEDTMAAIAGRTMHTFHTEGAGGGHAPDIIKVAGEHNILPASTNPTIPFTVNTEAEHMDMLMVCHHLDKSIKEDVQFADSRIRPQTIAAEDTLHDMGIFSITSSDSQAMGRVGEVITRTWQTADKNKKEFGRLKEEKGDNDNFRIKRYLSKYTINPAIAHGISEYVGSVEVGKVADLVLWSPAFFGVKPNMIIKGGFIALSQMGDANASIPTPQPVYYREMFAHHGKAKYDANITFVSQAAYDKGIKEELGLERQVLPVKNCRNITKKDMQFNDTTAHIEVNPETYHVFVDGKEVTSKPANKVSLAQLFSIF
Protocol: as §1, §2

[1] = set-up: method as in PMID 23159469; settings: among berberine, coptisine, palmatine and epiberberine; in vitro and in vivo assays; cited from earlier work

COc1cc2c(cc1OC)-c1cc3ccc(OC)c(OC)c3c[n+]1CC2 [Pal, Palmatine]
remaining activity at 477 µM (jack bean urease (JBU); read-out: Residual activity, Fig 2B JBU, Pal 0.477 mM): 25.7% | remaining activity at 954 µM (jack bean urease (JBU); read-out: Residual activity, Fig 2B JBU, Pal 0.954 mM): 27.1% | remaining activity at 1.88802 µM (jack bean urease (JBU); read-out: Residual activity, Fig 2D JBU, head prints Pal 0.00188802 mM): 94.8% | remaining activity at 3.77605 µM (jack bean urease (JBU); read-out: Residual activity, Fig 2D JBU, head prints Pal 0.00377605 mM): 88.2% | remaining activity at 7.55209 µM (jack bean urease (JBU); read-out: Residual activity, Fig 2D JBU, head prints Pal 0.00755209 mM): 75.2% | remaining activity at 15.1042 µM (jack bean urease (JBU); read-out: Residual activity, Fig 2D JBU, head prints Pal 0.0151042 mM): 55.4% | remaining activity at 30.2084 µM (jack bean urease (JBU); read-out: Residual activity, Fig 2D JBU, head prints Pal 0.0302084 mM): 36.9% | remaining activity at 60.4167 µM (jack bean urease (JBU); read-out: Residual activity, Fig 2D JBU, head prints Pal 0.0604167 mM): 25.4% | remaining activity at 120.833 µM (jack bean urease (JBU); read-out: Residual activity, Fig 2D JBU, head prints Pal 0.120833 mM): 15.7% | remaining activity at 241.667 µM (jack bean urease (JBU); read-out: Residual activity, Fig 2D JBU, head prints Pal 0.241667 mM): 11.3% | IC50 (H. pylori urease (HPU)): 530 ± 10 µM | Residual activity (H. pylori urease (HPU); Fig 2A HPU, Pal 0.0149062 mM, replicates): 97.2774% and 99.8185% | Residual activity (H. pylori urease (HPU); Fig 2A HPU, Pal 0.0298125 mM, replicates): 98.3238% and 98.6586% | Residual activity (H. pylori urease (HPU); Fig 2A HPU, Pal 0.059625 mM, replicates): 95.8144% and 91.8003% | Residual activity (H. pylori urease (HPU); Fig 2A HPU, Pal 0.11925 mM, replicates): 84.6333% and 83.9334% | Residual activity (H. pylori urease (HPU); Fig 2A HPU, Pal 0.2385 mM, replicates): 71.2237% and 68.6838% | Residual activity (H. pylori urease (HPU); Fig 2A HPU, Pal 0.477 mM, replicates): 44.3368% and 41.1296% | Residual activity (H. pylori urease (HPU); Fig 2A HPU, Pal 0.954 mM, replicates): 18.2056% and 23.6712% | Residual activity (H. pylori urease (HPU); Fig 2C HPU, head prints Pal 0.00755209 mM, replicates): 104.061% and 86.9419% | Residual activity (H. pylori urease (HPU); Fig 2C HPU, head prints Pal 0.0151042 mM, replicates): 98.3628% and 84.9736% | Residual activity (H. pylori urease (HPU); Fig 2C HPU, head prints Pal 0.0302084 mM, replicates): 80.4878% and 87.2209% and 66.9067% | Residual activity (H. pylori urease (HPU); Fig 2C HPU, head prints Pal 0.0604167 mM, replicates): 64.023% and 48.6958% | Residual activity (H. pylori urease (HPU); Fig 2C HPU, head prints Pal 0.120833 mM, replicates): 34.9663% and 29.6848% | Residual activity (H. pylori urease (HPU); Fig 2C HPU, head prints Pal 0.241667 mM, replicates): 20.774% and 15.3785% | remaining activity at 14.9062 µM (H. pylori urease (HPU); read-out: Residual activity, Fig 2A HPU, Pal 0.0149062 mM, replicates): 98.5% | remaining activity at 29.8125 µM (H. pylori urease (HPU); read-out: Residual activity, Fig 2A HPU, Pal 0.0298125 mM, replicates): 92% | remaining activity at 59.625 µM (H. pylori urease (HPU); read-out: Residual activity, Fig 2A HPU, Pal 0.059625 mM, replicates): 88% | remaining activity at 119.25 µM (H. pylori urease (HPU); read-out: Residual activity, Fig 2A HPU, Pal 0.11925 mM, replicates): 77.1% | remaining activity at 238.5 µM (H. pylori urease (HPU); read-out: Residual activity, Fig 2A HPU, Pal 0.2385 mM, replicates): 66.8% | remaining activity at 477 µM (H. pylori urease (HPU); read-out: Residual activity, Fig 2A HPU, Pal 0.477 mM, replicates): 49.6% | remaining activity at 954 µM (H. pylori urease (HPU); read-out: Residual activity, Fig 2A HPU, Pal 0.954 mM, replicates): 24.2% | remaining activity at 7.55209 µM (H. pylori urease (HPU); read-out: Residual activity, Fig 2C HPU, head prints Pal 0.00755209 mM, replicates): 94.8% | remaining activity at 15.1042 µM (H. pylori urease (HPU); read-out: Residual activity, Fig 2C HPU, head prints Pal 0.0151042 mM, replicates): 92.1% | remaining activity at 60.4167 µM (H. pylori urease (HPU); read-out: Residual activity, Fig 2C HPU, head prints Pal 0.0604167 mM, replicates): 56.1% | remaining activity at 120.833 µM (H. pylori urease (HPU); read-out: Residual activity, Fig 2C HPU, head prints Pal 0.120833 mM, replicates): 31% | remaining activity at 241.667 µM (H. pylori urease (HPU); read-out: Residual activity, Fig 2C HPU, head prints Pal 0.241667 mM, replicates): 23.2% | toxicity [1]: minimal

— article PMC5207512, “Inhibition of Helicobacter pylori and Its Associated Urease by Palmatine: Investigation on the Potential Mechanism” (PLoS ONE, 2017)
